This is an account of results in patent publication US7759358B2, “Oral bioavailable prodrugs” (priority 2003, dated 2010).

Entries after “also recorded” stand apart in the source; their conditions may differ.

The conditions of data set [1]: oral therapy; cited from earlier work.
Data set [2] in a line: Drug concentration in the skin after the 48 hour diffusion study.
The nature of data set [3]: In vitro diffusion studies with human skin (flow-through diffusion cells). It is filed as in vitro ADME. As to conditions: for in vitro NTX (equivalent) flux across human skin, NTX-NTX compared with NTX: FIG. 2, mean of nine cells NTX and twelve cells NTX-NTX, three donors, paired Student's t-test p<0.05. As for the experimental part: In vitro diffusion studies were conducted using human skin harvested during abdominal reduction surgery. Skin sections were obtained by using a Padgett dermatome set to 250 microns, and then were frozen at −20° C. until the time of the experiment. A PermeGear flow-through (In-Line, Riegelsville, Pa.) diffusion cell system was used for the diffusion studies. Data was collected utilizing three different specimens of frozen human tissue from three different donors. The human tissues had been frozen from two to five months. Three diffusion cells were used for NTX and four cells were used for NTX-NTX. A receiver buffer of HEPES-buffered Hank's balanced salts solution with gentamicin at pH of 7.3-7.4 was collected at a flow rate of 1.1 mL/h. A saturated NTX or NTX-NTX solution in light mineral oil was applied to the skin cells. Each cell received 0.25 mL of the respective drug solution. Samples were collected in six hour increments for 48 hours. After a six hour sample was obtained, they were stored at 4° C. until solid phase extraction processing. Skin cells were kept at 32° C. with a circulating water bath set to 39° C.
The diffusion data were plotted as the cumulative quantity of NTX equivalents collected in the receiver cell as a function of time. The flux value for a given experiment was computed from Fick's First Law of diffusion:
where Js is the steady-state flux, M is the cumulative amount of intact drug permeating the skin, A is the area of the cell (0.95 cm^2), Kp is the effective permeability coefficient in cm/h, and ΔC is the difference in concentration of NTX or NTX-NTX in the donor and receiver. Buildup in the receiver cell was kept to a minimum throughout the studies.
[…] in the skin and appeared as NTX in the receiver collection. The total amounts of NTX that absorbed through the skin and into the receiver from NTX and NTX-NTX were used in the data analysis. […] Data represent the mean±standard deviation of the nine skin cells with NTX and the twelve skin cells with NTX-NTX. Three individual human donor skin tissues were used. Due to the high variability of human skin, NTX was used with each experiment as a control. The results are reported in NTX nmol equivalents because the NTX-NTX duplex contains two molecules of NTX. Approximately 4% of the NTX flux was from the intact NTX-NTX prodrug, and 96% was NTX originating from the hydrolysis of NTX-NTX.
The data represents the mean±standard deviation of the nine cells with NTX and the twelve cells of NTX-NTX. Three individual human donor skin tissues were used.

Setting [4] is: saturated solution in light mineral oil, human skin, 32° C., 48 hours, receiver collection.

In the case of `O=C1CC[C@@]2(O)[C@H]3Cc4ccc(O)c5c4[C@@]2(CCN3CC2CC2)[C@H]1O5` [NTX, Naltrexone], the hepatotoxicity result in data set [1] is given as “dose-related hepatocellular injury”.
`O=C(Oc1ccc2c3c1OC1C(=O)CC[C@@]4(O)[C@@H](C2)N(CC2CC2)CC[C@]314)Oc1ccc2c3c1OC1C(=O)CC[C@@]4(O)[C@@H](C2)N(CC2CC2)CC[C@]314` (stereo partly shown) [NTX-NTX, 3,3′-Di-(N-cyclopropylmethyl-4,5-epoxy-14-hydroxy-morphinan-6-one-3-yl) Carbonate]: in data set [2] (after 48 hour diffusion study, FIG. 3), the “total NTX equivalent skin concentration, NTX-NTX-treated skin versus NTX-treated skin” value is listed as “No significant difference”. In addition, the “share of the drug extracted from the NTX-NTX-treated skin that was NTX (bioconversion)” value in data set [2] (end of the 48 hour study, human skin) was 66%. The “in vitro NTX (equivalent) flux across human skin, NTX-NTX compared with NTX” value in data set [3] was “significant difference between the means; also recorded: significant increase in NTX equivalent flux”. Besides, the “in vitro NTX (equivalent) flux across human skin, NTX-NTX compared with NTX” value in data set [3] (listed as duplex prodrug of NTX) is “unexpected increase of NTX maximum flux rate”. Besides, in data set [3] (setting [4]), the “share of the NTX flux that was NTX originating from the hydrolysis of NTX-NTX” value is reported as 96% and the “share of the NTX flux that was intact NTX-NTX prodrug” value is given as “Approximately 4%”.
